Reference: patent publication US12171740B2, “Compositions and methods for treating allergic inflammatory conditions” (CHILDREN'S HOSPITAL MEDICAL CENTER, priority 2016, dated 2024)
Entries after “also recorded” stand apart in the source; their conditions may differ. Each block holds one molecule with its values, some of them ahead of it.

Columns and labels:
KLK5 [1] = biological target: T1, KLK5 (Homo sapiens, UniProt Q9Y337); assay: Inhibition of KLK5 by organic compounds (dose response); format: biochemical
T1 sequence (Q9Y337 23-293): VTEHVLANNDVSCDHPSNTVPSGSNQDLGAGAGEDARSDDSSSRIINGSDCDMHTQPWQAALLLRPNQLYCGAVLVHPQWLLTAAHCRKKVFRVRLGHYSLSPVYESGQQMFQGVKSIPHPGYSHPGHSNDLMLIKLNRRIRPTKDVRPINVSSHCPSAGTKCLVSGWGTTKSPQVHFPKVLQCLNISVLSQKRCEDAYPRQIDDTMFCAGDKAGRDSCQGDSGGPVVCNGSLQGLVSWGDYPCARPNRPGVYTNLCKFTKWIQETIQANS
Description: FIGS. 14A-14B show the effect of organic compounds on KLK5 activity. FIG. 14A is a dose response curve for 3-(3-chlorophenyl) carboxy-7-hydroxymethyl coumarin. FIG. 14B is a dose response curve for 3-carboxy-7-hydroxymethyl coumarin.
Two organic compounds were tested for their inhibition of KLK5.

[2] = system: serine proteinases with trypsin-like activity; assay: Trypsin-like / proteolytic activity in supernatants of SPINK7-depleted EPC2 cells; format: cell-based, human; settings: following ALI differentiation
Description: (§1) FIG. 10A is a bar graph showing quantification of uPA activity in supernatants derived from (NSC) or SPINK7-depleted EPC2 cells following during ALI differentiation (day 7-9). FIG. 10B is a bar graph showing quantification of the activity of serine proteinases with trypsin-like activity in supernatants derived from (NSC) or SPINK7-depleted EPC2 cells and primary esophageal cells following ALI differentiation. Proteinase activity in the supernatants is calculated as nM concentrations according to standard dilutions of recombinant hKLK5. In vitro activity assays of KLK5 (FIG. 10C) KLK7 (FIG. 10D) and KLK11 (FIG. 10E) in the presence of the indicated concentrations of SPINK7. Data are represented as the mean±s.e.m.
FIG. 12A is a bar graph showing FPKM values of uPA in the esophagus of EoE patients and controls. FIG. 12B is a bar graph showing analysis of the uPA proteolytic activity (active units—AU) in esophageal biopsies from 6 normal and 6 EoE patients. […] FIG. 12D is a bar graph showing quantification of trypsin-like activity in supernatants derived from NSC or SPINK7-depleted EPC2 cells that were treated with A1AT or a vehicle following ALI differentiation. […]
The known SPINK7 target uPA (Cheng, X., Lu, S. H. & Cui, Y. Cancer letters 290, 87-95 (2010), and Huang, G. et al. Carcinogenesis 28, 2274-2281(2007)) was analyzed. […]

[3] = system: SPINK7-depleted EPC2 cells; assay: Barrier function (electrical resistance) of SPINK7-depleted EPC2 cells during ALI differentiation; format: cell-based, human; settings: treated with A1AT during ALI differentiation, Day 7
Description: (§2) FIG. 12A is a bar graph showing FPKM values of uPA in the esophagus of EoE patients and controls. FIG. 12B is a bar graph showing analysis of the uPA proteolytic activity (active units—AU) in esophageal biopsies from 6 normal and 6 EoE patients. […] FIG. 12D is a bar graph showing quantification of trypsin-like activity in supernatants derived from NSC or SPINK7-depleted EPC2 cells that were treated with A1AT or a vehicle following ALI differentiation. FIG. 12E are electrical resistance measurements of NSC or SPINK7-depleted EPC2 cells that were treated with A1AT or a vehicle during ALI differentiation (Day 7). FIG. 12F are H&E staining images of NSC or SPINK7-depleted EPC2 cells that were treated with A1AT or a vehicle after ALI differentiation (Day 14)-add. FIG. 12G are images of co-immunofluorescence staining of E-cadherin and Filaggrin of NSC or SPINK7-depleted EPC2 cells that were treated with A1AT or a vehicle following ALI differentiation.
Paracellular and transcellular permeability of the ALI cultured cells were analyzed. […] Transepithelial electrical resistance (A) was measured from NSC and SPINK7-depleted EPC2 cells measured at day 7 and 8 during ALI differentiation (data not shown; data were representative of four experiments performed in triplicate and are represented as the mean±Sd). […]

[4] = system: SPINK7-depleted EPC2 cells; assay: H&E staining of SPINK7-depleted EPC2 cells after ALI differentiation (epithelial integrity); format: cell-based, human; settings: ALI differentiation Day 14
Description: as §2
(§3) To extend the potential benefit of A1AT, its ability to restore the epithelial changes induced by SPINK7 loss was […]. […] Consistent with these findings, A1AT administration increased filaggrin expression (FIG. 12G)

Filaggrin = assay: Co-immunofluorescence staining of filaggrin in SPINK7-depleted EPC2 cells; format: cell-based, human; settings: following ALI differentiation
Description: as §2, §3

KLK5 [5] = biological target: T1, KLK5; assay: In vitro KLK5 activity assay in the presence of SPINK7; format: biochemical
Description: as §1

KLK7 = KLK7 (Homo sapiens, UniProt P49862); assay: In vitro KLK7 activity assay in the presence of SPINK7; format: biochemical
Description: as §1

KLK11 = biological target: T2, KLK11 (Homo sapiens, UniProt Q9UBX7); assay: In vitro KLK11 activity assay in the presence of SPINK7; format: biochemical
T2 sequence (Q9UBX7 54-282): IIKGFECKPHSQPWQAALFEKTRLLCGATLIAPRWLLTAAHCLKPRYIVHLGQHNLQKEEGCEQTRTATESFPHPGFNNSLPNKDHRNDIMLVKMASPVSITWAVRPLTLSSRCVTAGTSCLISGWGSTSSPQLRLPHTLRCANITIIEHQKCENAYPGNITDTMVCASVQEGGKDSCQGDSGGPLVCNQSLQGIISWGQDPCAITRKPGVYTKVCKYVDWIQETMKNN
Description: as §1

uPA = uPA (Homo sapiens, UniProt P00749); assay: uPA proteolytic activity inhibition by SPINK7; format: biochemical; settings: data not shown
Description: The known SPINK7 target uPA (Cheng, X., Lu, S. H. & Cui, Y. Cancer letters 290, 87-95 (2010), and Huang, G. et al. Carcinogenesis 28, 2274-2281(2007)) was analyzed. […] An increased proteolytic activity using the broad trypsin-like activity substrate Val-Pro-Arg (FIG. 10B) was observed.

Chain of KLK7 (P49862 30-253): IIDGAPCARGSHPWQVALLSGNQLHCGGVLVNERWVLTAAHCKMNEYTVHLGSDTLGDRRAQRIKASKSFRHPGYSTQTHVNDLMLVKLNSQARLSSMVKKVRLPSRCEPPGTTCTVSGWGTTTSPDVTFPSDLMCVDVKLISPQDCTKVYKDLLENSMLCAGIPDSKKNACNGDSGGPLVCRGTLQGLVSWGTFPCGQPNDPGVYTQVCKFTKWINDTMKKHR

IC50 (KLK5 [1]): 52000 ± 12000 nM
type of KLK5 inhibition (reversibility) (KLK5 [1]): non reversible inhibitors
Molecule: 3-(3-chlorophenyl) carboxy-7-hydroxymethyl coumarin [Compound I]

IC50 (KLK5 [1]): 83 ± 8 nM
type of KLK5 inhibition (reversibility) (KLK5 [1]): non reversible inhibitors
Molecule: O=C(O)c1cc2ccc(CO)cc2oc1=O [Compound II, 3-carboxy-7-hydroxymethyl coumarin]

Molecule: A1AT: serine proteinase inhibitor alpha-1 anti-trypsin, administered to SPINK7-silenced cells [Compound A1AT]
trypsin-like activity of supernatant of SPINK7 silenced cells [2]: inhibited
barrier function (electrical resistance) [3]: dose-dependent ability to improve barrier function
epithelial integrity (inter-cellular spaces) [4]: decreased inter-cellular spaces
filaggrin expression (Filaggrin): increased

inhibition of KLK5 proteolytic activity (KLK5 [5]; in vitro): inhibited
Ki (KLK5 [5]; mean±SD, dose-dependent, read-out: Ki, inhibition of KLK5 proteolytic activity): 132 ± 108 nM
inhibition of KLK7 (KLK7): did not inhibit; also recorded: not KLK7
inhibition of KLK11 (KLK11): did not inhibit
inhibition of uPA proteolytic activity (uPA): directly inhibited
B1: SPINK7: serine proteinase inhibitor kazal-type 7 protein, tested in vitro against KLK5, KLK7, KLK11 and uPA (protein, UniProt P58062 20-85, looked up)
Serine protease inhibitor …: SEAASLSPKKVDCSIYKKYPVVAIPCPITYLPVCGSDYITYGNECHLCTESLKSNGRVQFLHDGSC
